Laboratory results from PMC12295306, “Gut Microbial Postbiotics as Potential Therapeutics for Lymphoma: Proteomics Insights of the Synergistic Effects of Nisin and Urolithin B Against Human Lymphoma Cells” (International Journal of Molecular Sciences, 2025).

Columns and labels:
[1] = test system: HKB-11 human lymphoma cells; experiment: Alamar Blue antiproliferative assay, HKB-11; assay type: cell-based; details: HKB-11, 72 h, single postbiotics, GraphPad Prism nonlinear regression, read-out: IC50 (concentration required to inhibit 50% of cell growth)
Protocol: The cell viability of the HKB-11, Hs 313.T, and HS-5 cells after treatment with different concentrations of the seven different postbiotics, including SCFA salts (magnesium acetate, sodium propionate, and sodium butyrate), UA and UB, purine nucleoside (inosine), and bacteriocin (N), was determined using the Alamar Blue assay as per the method described earlier. Briefly, 100 μL of cells was cultured in 96-well plates at a 3 × 10^5 cells/mL seeding density. After 24 h, the cells were treated with 16,000 µM of each postbiotic except for the urolithins, which were applied at 500 µM using a 1:2 serial dilution across a 10-point dose–response curve, followed by a 72 h incubation. A positive control using doxorubicin was prepared at a concentration of 4 μM, and an untreated control with 0.1% DMSO was added to every plate. At the end of the incubation period, the culture media were removed, and 100 μL of a 0.1 mg/mL Alamar Blue solution (resazurin, prepared as a stock solution at 1 mg/mL in freshly made PBS, followed by a 1:10 dilution with serum-free media) was added to each well. The fluorescence levels were assessed using a microplate spectrophotometer (BMG CLARIOstar, Mornington, VIC, Australia) with an excitation wavelength of 555 nm and emission measurement at 595 nm. The compounds were tested in triplicate, with the untreated control taken as 100% cell viability.
Data were collected and managed using MS Office Excel and GraphPad Prism for statistical analyses and visualisation. Data collection and analyses were carried out in triplicate, and the outcomes were presented as the mean ± standard deviation. Statistical significance between the mean values was determined at p ≤ 0.05 employing a two-way ANOVA. Tukey and Dunnett’s tests were utilised within GraphPad Prism software to perform nonlinear regression and multiple comparisons. Furthermore, GraphPad Prism software computed the IC50 value (representing the drug concentration required to achieve a 50% cell growth inhibition). The experimental groups in the proteomics study were compared statistically using unpaired t-tests, assuming equal variances. Candidate proteins were selected based on an absolute log2 fold change ≥ 0.58 and a Q-value ≤ 0.05. Enrichment analysis was subsequently conducted using Ingenuity Pathway Analysis (IPA), applying a significance threshold of adjusted Q ≤ 0.05 to identify functionally enriched pathways, focusing on those with an absolute z-score of ≥1.

HKB-11 lymphoma cells = experiment: ROS production, H2DCFDA assay; assay type: cell-based, human; details: 4 h
Protocol: Briefly, HKB-11 lymphoma cells (2.5 × 10^5 cells/mL) were cultured in a 96-well plate, allowed to adhere overnight, and treated with 20 μM H2DCFDA for 45 min to assess ROS levels. The dye solution was removed, and cells were washed with 1× buffer. Next, the cells were treated with N (8000 μM), N (4000 μM), UB (500 μM), UB (250 μM), N/UB (3500 μM), N/UB (1750 μM), N/UB (5750 μM), N/UB (2875 μM), Dox (4 μM), and tert-butyl hydroperoxide (TBHP) (150 μM) and then incubated at 37 °C for 4 h. Finally, the plate was immediately read at Ex/Em = 485/535 nm using a microplate spectrophotometer (BMG CLARIOstar, VIC, Australia). The fold change in ROS production was determined relative to the untreated control (cells treated with the supplement buffer according to the manufacturer’s protocol).

[2] = cited from earlier work
Source text: Both N and UB face challenges regarding bioavailability. […] Thus, formulation strategies or delivery systems to enhance systemic exposure warrant exploration in future studies.

Molecule | IC50 [1] [µM] | ROS levels compared to the untreated control (HKB-11 lymphoma cells; HKB-11, 500 μM and 250 μM, p ≥ 0.05, n = 3) | Metabolism [2] | Oral bioavailability [2] | ROS levels compared to the untreated control (HKB-11 lymphoma cells; HKB-11, 8000 μM, p ≤ 0.01, n = 3) | Proteolytic stability [2] | Stability in the gastrointestinal tract [2] | Systemic absorption [2]
O=c1oc2cc(O)ccc2c2ccccc12 [UB, Urolithin B] | 87.6 | minimal changes | extensively metabolised | moderate oral bioavailability |  |  |  | 
Nisin (ITSISLCTPGCKTGALMGCNMKTATCHCSIHVSK; Lantibiotic nisin-A; UniProt P13068 24-57, looked up) [34-amino-acid lantibiotic peptide (bacteriocin) produced by Lactococcus lactis; purchased] | 1470 |  |  |  | statistically significant increase | susceptibility to proteolytic degradation | degraded in the gastrointestinal tract | low systemic absorption
